Source: patent US20240279240A1, “HETEROCYCLIC DERIVATIVES AS JANUS KINASE INHIBITORS” (CHIESI FARMACEUTICI S.P.A., priority 2021, published 2024)
One block for each compound: values may come before it.

What was measured:
[1] = target: JAK 1 (Homo sapiens, UniProt P23458); assay: Biochemical potency on JAK1, TR-FRET LANCE Ultra kinase assay (examples 1-99); conditions: ATP at Km (20 μM), read-out: JAK1 inhibitory activity (pIC50 class) (converted)
Description: (§1) The objective of this study was to assess the capability of compounds to inhibit all 4 JAK isoforms activity in a cell-free environment. Assay for JAK 1, JAK 2, JAK 3 and TYK2 were performed by Time-resolved fluorescence resonance energy transfer (TR-FRET) technology. It consists in the interaction of two labelled binding partners detected by the energy transfer from an excited donor to an acceptor dye and measurement of light emission by the acceptor dye. LANCE Ultra kinase assay was used. In presence of JAK 1, JAK 2, JAK 3 and TYK2 kinases and ATP (corresponding to Km), the ULight peptide substrate (LANCE Ulight-JAK-1 (Tyr1023) Peptide, Perkin Elmer, TRF0121) is phosphorylated. It is then captured by Eu-anti-phospho-substrate antibody (LANCE Eu-W1024 Anti-phosphotyrosine (PT66), Perkin Elmer, AD0069), which bring the Eu-chelate donor and ULight acceptor dyes into close proximity. Upon excitation at 320 nm, the Eu-chelate transfers its energy to the ULight dye, resulting in a fluorescent light emission at 665 nm.
(§2) Serial dilutions of compounds in pure DMSO are prepared from 10 mM DMSO stock solutions. Compounds were tested in 384-well plate for 11 consecutive 5-fold dilutions starting from 20 μM highest concentration (20 μM-[…]). 200 nL of compound were transferred from mother plate to test plate by using Mosquito (TTP labtech). Assay was performed in 384-well Perkin Elmer test plate in 20 μL assay volume (kinase reaction) and 40 μL total volume (stopping reagent and antibody detection reagents). In 10 μL of substrate solution (peptide+ATP) 30/50/20/10 nM of peptide and 20/0.7/0.2/12 μM of ATP were added for JAK 1, JAK 2, JAK 3 and TYK2 respectively. 10 μL of enzyme solution was added to kinase reaction at these concentrations: 0.15/0.083/0.025/0.144 ng/μL of JAK 1, JAK 2, JAK 3 and TYK2 respectively. After shaking and 1.5 h of incubation at r.t., 20 μL of Stop (10 μL EDTA) and Detection mixture (10 μL Europium-anti-phospho antibody, final: 0.5 nM) were added. Reading was performed after 1 h of incubation on a EnVision 2104 reader (Perkin Elmer).
(§3) Calculation of IC50 data, curves and QC analysis was performed by using Excel tool and GraphPadPrism software, v9. Briefly, individual concentration-effect curves are generated by plotting the logarithm of the tested concentration of tested compounds (X) vs. corresponding percent inhibition values (Y) using least squares (ordinary) fit. Best fit IC50 values are calculated using Log(inhibitor) vs. normalized response—Variable slope equation, where Y=100/(1+10^((Log IC50−X)*HillSlope)). QC criteria parameters (Z′, S:B, R2, HillSlope) were checked for every IC50 curve. Calculation of IC50 data, curves and QC analysis were made using Excel tools and GraphPadPrism software. QC criteria parameters: Z′≥0.5, Hill Slope range 0.5 to 5, S:B>2.

[2] = target: JAK 2 (Homo sapiens, UniProt O60674); assay: Biochemical potency on JAK2, TR-FRET LANCE Ultra kinase assay (examples 1-99); conditions: ATP at Km (0.7 μM), read-out: JAK2 inhibitory activity (pIC50 class) (converted)
Description: as §1, §2, §3

[3] = target: T1, JAK 3 (Homo sapiens, UniProt P52333); assay: Biochemical potency on JAK3, TR-FRET LANCE Ultra kinase assay (examples 1-99); conditions: ATP at Km (0.2 μM), read-out: JAK3 inhibitory activity (pIC50 class) (converted)
T1 sequence (P52333 1-1124): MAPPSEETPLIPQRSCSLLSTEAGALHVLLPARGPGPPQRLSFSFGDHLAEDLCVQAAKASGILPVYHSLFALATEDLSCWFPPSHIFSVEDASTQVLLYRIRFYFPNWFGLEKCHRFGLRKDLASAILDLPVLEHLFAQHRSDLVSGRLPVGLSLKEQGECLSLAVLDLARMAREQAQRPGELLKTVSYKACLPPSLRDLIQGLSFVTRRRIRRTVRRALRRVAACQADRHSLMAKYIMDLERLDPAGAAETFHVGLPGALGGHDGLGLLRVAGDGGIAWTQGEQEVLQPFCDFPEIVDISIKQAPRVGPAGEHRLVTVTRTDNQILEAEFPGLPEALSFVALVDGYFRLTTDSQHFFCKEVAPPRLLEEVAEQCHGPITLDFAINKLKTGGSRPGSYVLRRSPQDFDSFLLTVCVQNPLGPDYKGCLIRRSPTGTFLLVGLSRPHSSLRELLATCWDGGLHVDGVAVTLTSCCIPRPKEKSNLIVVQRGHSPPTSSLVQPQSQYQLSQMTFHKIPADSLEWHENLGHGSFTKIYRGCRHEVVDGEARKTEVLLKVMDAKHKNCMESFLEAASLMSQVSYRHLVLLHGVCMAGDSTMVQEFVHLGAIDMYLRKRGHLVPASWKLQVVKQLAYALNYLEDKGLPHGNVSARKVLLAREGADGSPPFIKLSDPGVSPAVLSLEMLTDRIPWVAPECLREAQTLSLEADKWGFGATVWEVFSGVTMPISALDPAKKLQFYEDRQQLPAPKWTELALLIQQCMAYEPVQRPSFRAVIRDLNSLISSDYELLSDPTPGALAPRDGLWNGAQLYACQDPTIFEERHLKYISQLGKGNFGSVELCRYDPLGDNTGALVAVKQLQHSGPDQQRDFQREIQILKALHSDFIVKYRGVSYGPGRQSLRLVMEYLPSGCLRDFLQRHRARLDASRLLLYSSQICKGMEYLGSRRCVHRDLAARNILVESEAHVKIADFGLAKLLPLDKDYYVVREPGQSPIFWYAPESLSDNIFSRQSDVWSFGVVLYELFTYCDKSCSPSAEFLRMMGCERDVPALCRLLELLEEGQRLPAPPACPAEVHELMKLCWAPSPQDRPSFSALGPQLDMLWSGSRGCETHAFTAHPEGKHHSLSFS
Description: as §1, §2, §3

[4] = target: TYK2 (Homo sapiens, UniProt P29597); assay: Biochemical potency on Tyk2, TR-FRET LANCE Ultra kinase assay (examples 1-99); conditions: ATP at Km (12 μM), read-out: Tyk2 inhibitory activity (pIC50 class) (converted)
Description: as §1, §2, §3

Sequence of JAK 2 (O60674 whole entry): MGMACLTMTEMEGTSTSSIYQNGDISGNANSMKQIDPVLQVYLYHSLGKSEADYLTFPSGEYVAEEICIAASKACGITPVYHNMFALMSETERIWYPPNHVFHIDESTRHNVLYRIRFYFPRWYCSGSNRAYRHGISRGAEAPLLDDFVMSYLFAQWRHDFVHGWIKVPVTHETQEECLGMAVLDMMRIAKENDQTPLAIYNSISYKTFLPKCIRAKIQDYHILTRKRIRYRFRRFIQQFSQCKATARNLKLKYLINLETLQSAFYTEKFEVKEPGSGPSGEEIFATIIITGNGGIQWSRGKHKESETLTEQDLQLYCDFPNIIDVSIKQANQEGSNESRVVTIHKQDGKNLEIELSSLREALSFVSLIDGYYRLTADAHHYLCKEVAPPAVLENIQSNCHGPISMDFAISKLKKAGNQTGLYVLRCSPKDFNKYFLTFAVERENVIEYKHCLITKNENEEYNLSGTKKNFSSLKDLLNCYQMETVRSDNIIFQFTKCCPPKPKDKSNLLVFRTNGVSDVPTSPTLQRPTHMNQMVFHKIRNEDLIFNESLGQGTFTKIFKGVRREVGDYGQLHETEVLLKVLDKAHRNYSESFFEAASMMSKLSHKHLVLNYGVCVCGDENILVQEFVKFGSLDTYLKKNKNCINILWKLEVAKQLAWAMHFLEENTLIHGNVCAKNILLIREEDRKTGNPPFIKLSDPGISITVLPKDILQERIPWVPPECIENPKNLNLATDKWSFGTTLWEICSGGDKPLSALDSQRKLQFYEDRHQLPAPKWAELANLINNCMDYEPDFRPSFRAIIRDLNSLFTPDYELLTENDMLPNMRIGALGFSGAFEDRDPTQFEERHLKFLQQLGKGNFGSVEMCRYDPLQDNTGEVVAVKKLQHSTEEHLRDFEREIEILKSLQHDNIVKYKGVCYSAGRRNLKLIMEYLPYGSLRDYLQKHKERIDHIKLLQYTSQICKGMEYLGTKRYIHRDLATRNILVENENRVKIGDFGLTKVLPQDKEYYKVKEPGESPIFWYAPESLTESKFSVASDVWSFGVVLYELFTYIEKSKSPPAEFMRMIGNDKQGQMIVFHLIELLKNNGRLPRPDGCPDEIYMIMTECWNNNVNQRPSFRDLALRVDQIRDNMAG
Sequence of TYK2 (P29597 whole entry): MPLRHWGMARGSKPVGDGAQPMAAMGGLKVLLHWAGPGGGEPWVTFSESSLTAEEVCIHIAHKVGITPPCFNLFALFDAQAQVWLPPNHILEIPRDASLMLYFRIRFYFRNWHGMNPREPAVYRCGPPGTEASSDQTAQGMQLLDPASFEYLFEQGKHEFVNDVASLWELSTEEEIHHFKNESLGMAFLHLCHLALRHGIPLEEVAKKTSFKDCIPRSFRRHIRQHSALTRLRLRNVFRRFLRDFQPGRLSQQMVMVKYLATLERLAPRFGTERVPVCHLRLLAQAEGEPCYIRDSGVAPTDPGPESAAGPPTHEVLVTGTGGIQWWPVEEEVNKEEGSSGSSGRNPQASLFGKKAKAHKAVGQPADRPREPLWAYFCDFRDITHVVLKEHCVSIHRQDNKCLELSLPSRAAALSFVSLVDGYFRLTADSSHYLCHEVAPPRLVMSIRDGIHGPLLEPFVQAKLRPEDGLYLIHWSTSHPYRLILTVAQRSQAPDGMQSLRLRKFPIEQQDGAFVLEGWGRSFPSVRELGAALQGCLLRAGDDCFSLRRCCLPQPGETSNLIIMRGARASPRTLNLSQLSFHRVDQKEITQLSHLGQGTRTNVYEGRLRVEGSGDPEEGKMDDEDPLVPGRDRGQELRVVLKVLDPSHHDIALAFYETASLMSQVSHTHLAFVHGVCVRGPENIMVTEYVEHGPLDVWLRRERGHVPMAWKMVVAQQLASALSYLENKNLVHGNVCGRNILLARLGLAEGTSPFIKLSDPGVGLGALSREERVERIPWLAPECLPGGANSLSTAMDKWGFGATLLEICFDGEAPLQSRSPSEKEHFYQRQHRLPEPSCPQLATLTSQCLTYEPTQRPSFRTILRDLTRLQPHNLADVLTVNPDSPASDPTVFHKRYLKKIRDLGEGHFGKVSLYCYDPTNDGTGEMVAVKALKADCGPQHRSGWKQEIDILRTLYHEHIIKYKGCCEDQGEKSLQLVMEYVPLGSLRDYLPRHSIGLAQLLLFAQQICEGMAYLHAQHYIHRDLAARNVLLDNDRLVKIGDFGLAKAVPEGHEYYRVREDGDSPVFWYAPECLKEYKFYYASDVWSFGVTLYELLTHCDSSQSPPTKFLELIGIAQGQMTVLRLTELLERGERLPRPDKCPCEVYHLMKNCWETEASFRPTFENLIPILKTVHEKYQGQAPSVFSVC
Sequence of JAK 1 (P23458 whole entry, canonical isoform): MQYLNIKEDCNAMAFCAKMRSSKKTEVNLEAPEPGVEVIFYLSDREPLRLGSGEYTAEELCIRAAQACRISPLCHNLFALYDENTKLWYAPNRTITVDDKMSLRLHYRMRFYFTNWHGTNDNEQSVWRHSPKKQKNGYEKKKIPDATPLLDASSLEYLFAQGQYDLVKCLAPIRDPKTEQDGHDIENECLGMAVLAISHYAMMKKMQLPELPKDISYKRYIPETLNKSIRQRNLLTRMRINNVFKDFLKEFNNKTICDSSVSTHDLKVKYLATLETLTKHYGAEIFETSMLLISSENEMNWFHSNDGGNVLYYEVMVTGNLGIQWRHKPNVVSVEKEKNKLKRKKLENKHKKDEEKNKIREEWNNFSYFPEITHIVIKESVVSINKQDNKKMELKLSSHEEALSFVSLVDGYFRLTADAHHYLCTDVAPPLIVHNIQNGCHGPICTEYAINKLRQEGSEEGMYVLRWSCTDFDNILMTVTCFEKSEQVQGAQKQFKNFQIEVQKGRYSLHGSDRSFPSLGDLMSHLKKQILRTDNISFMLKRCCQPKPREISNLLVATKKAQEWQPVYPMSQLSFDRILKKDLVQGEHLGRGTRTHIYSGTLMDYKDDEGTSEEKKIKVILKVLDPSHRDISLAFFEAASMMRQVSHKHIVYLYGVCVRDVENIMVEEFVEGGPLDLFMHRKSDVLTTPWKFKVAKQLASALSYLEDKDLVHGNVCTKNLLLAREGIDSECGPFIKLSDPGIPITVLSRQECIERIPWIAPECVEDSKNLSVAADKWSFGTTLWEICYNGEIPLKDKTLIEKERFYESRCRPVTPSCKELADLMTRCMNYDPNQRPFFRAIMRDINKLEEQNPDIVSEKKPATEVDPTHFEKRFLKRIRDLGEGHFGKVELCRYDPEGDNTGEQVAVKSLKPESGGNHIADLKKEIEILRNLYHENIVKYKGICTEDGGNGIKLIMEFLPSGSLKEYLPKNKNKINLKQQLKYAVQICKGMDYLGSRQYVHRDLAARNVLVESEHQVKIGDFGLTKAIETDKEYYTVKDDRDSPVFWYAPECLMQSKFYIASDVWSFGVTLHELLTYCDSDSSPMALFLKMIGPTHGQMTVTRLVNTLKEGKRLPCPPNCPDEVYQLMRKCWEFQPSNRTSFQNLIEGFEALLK

SMILES: COc1ccc(S(=O)(=O)NCC2CN(C)C2)cc1-n1nc(C)c2cnc(-c3cnn4cccnc34)cc21 [Example 17, 4-methoxy-3-(3-methyl-6-(pyrazolo[1,5-a]pyrimidin-3-yl)-1H-pyrazolo[4,3-c]pyridin-1-yl)-N-((1-methylazetidin-3-yl)methyl)benzenesulfonamide]
IC50 [1]: 5.01 to 50.1 nM
IC50 [2]: 5.01 to 50.1 nM
IC50 [3]: > 50.1 nM
IC50 [4]: > 50.1 nM

SMILES: COc1ccc(Cl)cc1-n1nc(C(=O)N[C@H]2C[C@@H](O)C2)c2cnc(-c3cnn4cccnc34)cc21 [Example 34, 1-(5-chloro-2-methoxyphenyl)-N-((1s,3s)-3-hydroxycyclobutyl)-6-(pyrazolo[1,5-a]pyrimidin-3-yl)-1H-pyrazolo[4,3-c]pyridine-3-carboxamide]
IC50 [1]: 5.01 to 50.1 nM
IC50 [2]: 5.01 to 50.1 nM
IC50 [3]: 5.01 to 50.1 nM
IC50 [4]: > 50.1 nM

SMILES: COc1ccc(Cl)cc1-n1nc(OC)c2cnc(-c3cnn4cccnc34)cc21 [Example 50, 1-(5-chloro-2-methoxyphenyl)-3-methoxy-6-(pyrazolo[1,5-a]pyrimidin-3-yl)-1H-pyrazolo[4,3-c]pyridine]
IC50 [1]: 5.01 to 50.1 nM
IC50 [2]: 5.01 to 50.1 nM
IC50 [3]: 5.01 to 50.1 nM
IC50 [4]: 5.01 to 50.1 nM

SMILES: CNCc1nn(-c2cc(Cl)ccc2OC(F)F)c2cc(-c3cnn4cccnc34)ncc12 [Example 31, 1-(1-(5-chloro-2-(difluoromethoxy)phenyl)-6-(pyrazolo[1,5-a]pyrimidin-3-yl)-1H-pyrazolo[4,3-c]pyridin-3-yl)-N-methylmethanamine]
IC50 [1]: 5.01 to 50.1 nM
IC50 [2]: 5.01 to 50.1 nM
IC50 [3]: 5.01 to 50.1 nM
IC50 [4]: > 50.1 nM

SMILES: COc1cccc(S(=O)(=O)c2ccc(OC(F)F)c(-n3nc(C)c4cnc(-c5cnn6cccnc56)cc43)c2)c1 [Example 25, 1-(2-(difluoromethoxy)-5-((3-methoxyphenyl)sulfonyl)phenyl)-3-methyl-6-(pyrazolo[1,5-a]pyrimidin-3-yl)-1H-pyrazolo[4,3-c]pyridine]
IC50 [1]: 5.01 to 50.1 nM
IC50 [2]: ≤ 5.01 nM
IC50 [3]: ≤ 5.01 nM
IC50 [4]: 5.01 to 50.1 nM

SMILES: Cc1nn(-c2cc(C#N)ccc2OC(F)F)c2cc(-c3cnn4cccnc34)ncc12 [Example 64, 4-(difluoromethoxy)-3-(3-methyl-6-(pyrazolo[1,5-a]pyrimidin-3-yl)-1H-pyrazolo[4,3-c]pyridin-1-yl)benzonitrile]
IC50 [1]: 5.01 to 50.1 nM
IC50 [2]: ≤ 5.01 nM
IC50 [3]: ≤ 5.01 nM
IC50 [4]: 5.01 to 50.1 nM

SMILES: CC(=O)N1CCC(S(=O)(=O)c2ccc(OC(F)F)c(-n3nc(C)c4cnc(-c5cnn6cccnc56)cc43)c2)C1 (centres unmarked) [Example 24, 1-(3-((4-(difluoromethoxy)-3-(3-methyl-6-(pyrazolo[1,5-a]pyrimidin-3-yl)-1H-pyrazolo[4,3-c]pyridin-1-yl)phenyl)sulfonyl)pyrrolidin-1-yl)ethan-1-one]
IC50 [1]: 5.01 to 50.1 nM
IC50 [2]: ≤ 5.01 nM
IC50 [3]: ≤ 5.01 nM
IC50 [4]: > 50.1 nM

SMILES: CSc1ccc(OC(F)F)c(-n2nc(NCCCN(C)C)c3cnc(-c4cnn5cccnc45)cc32)c1 [Example 46, N1-(1-(2-(difluoromethoxy)-5-(methylthio)phenyl)-6-(pyrazolo[1,5-a]pyrimidin-3-yl)-1H-pyrazolo[4,3-c]pyridin-3-yl)-N3,N3-dimethylpropane-1,3-diamine]
IC50 [1]: 5.01 to 50.1 nM
IC50 [2]: ≤ 5.01 nM
IC50 [3]: ≤ 5.01 nM
IC50 [4]: 5.01 to 50.1 nM

SMILES: Cc1nn(-c2cc(S(=O)(=O)CCN3CCCCC3)ccc2OC(F)F)c2cc(-c3cnn4cccnc34)ncc12 [Example 23, 1-(2-(difluoromethoxy)-5-((2-(piperidin-1-yl)ethyl)sulfonyl)phenyl)-3-methyl-6-(pyrazolo[1,5-a]pyrimidin-3-yl)-1H-pyrazolo[4,3-c]pyridine]
IC50 [1]: 5.01 to 50.1 nM
IC50 [2]: 5.01 to 50.1 nM
IC50 [3]: 5.01 to 50.1 nM
IC50 [4]: > 50.1 nM

More lines, now with the values ahead:

IC50 [1]: 5.01 to 50.1 nM
IC50 [2]: 5.01 to 50.1 nM
IC50 [3]: 5.01 to 50.1 nM
IC50 [4]: > 50.1 nM
SMILES: COc1ccc(S(C)(=O)=O)cc1-n1nc(C(=O)NCCCN2CCOCC2)c2cnc(-c3cnn4cccnc34)cc21 [Example 84, 1-(2-methoxy-5-(methylsulfonyl)phenyl)-N-(3-morpholinopropyl)-6-(pyrazolo[1,5-a]pyrimidin-3-yl)-1H-pyrazolo[4,3-c]pyridine-3-carboxamide]

IC50 [1]: 5.01 to 50.1 nM
IC50 [2]: 5.01 to 50.1 nM
IC50 [3]: ≤ 5.01 nM
IC50 [4]: > 50.1 nM
SMILES: Cc1nn(-c2cc(SC3CCOCC3)ccc2OC(F)F)c2cc(-c3cnn4cccnc34)ncc12 [Example 72, 1-(2-(difluoromethoxy)-5-((tetrahydro-2H-pyran-4-yl)thio)phenyl)-3-methyl-6-(pyrazolo[1,5-a]pyrimidin-3-yl)-1H-pyrazolo[4,3-c]pyridine]

IC50 [1]: ≤ 5.01 nM
IC50 [2]: 5.01 to 50.1 nM
IC50 [3]: 5.01 to 50.1 nM
IC50 [4]: 5.01 to 50.1 nM
SMILES: COc1cc(O)c(F)cc1-n1nc(C(=O)NCCCN(C)C)c2cnc(-c3cnn4cccnc34)cc21 [Example 88, N-(3-(dimethylamino)propyl)-1-(5-fluoro-4-hydroxy-2-methoxyphenyl)-6-(pyrazolo[1,5-a]pyrimidin-3-yl)-1H-pyrazolo[4,3-c]pyridine-3-carboxamide]

IC50 [1]: > 50.1 nM
IC50 [2]: ≤ 5.01 nM
IC50 [3]: 5.01 to 50.1 nM
IC50 [4]: > 50.1 nM
SMILES: CNc1nn(-c2cc(S(C)(=O)=O)ccc2OC)c2cc(-c3cnn4cccnc34)ncc12 [Example 85, 1-(2-methoxy-5-(methylsulfonyl)phenyl)-N-methyl-6-(pyrazolo[1,5-a]pyrimidin-3-yl)-1H-pyrazolo[4,3-c]pyridin-3-amine]

IC50 [1]: 5.01 to 50.1 nM
IC50 [2]: 5.01 to 50.1 nM
IC50 [3]: 5.01 to 50.1 nM
IC50 [4]: > 50.1 nM
SMILES: Cc1nn(-c2cc(SCC(=O)NCCO)ccc2OC(F)F)c2cc(-c3cnn4cccnc34)ncc12 [Example 69, 2-((4-(difluoromethoxy)-3-(3-methyl-6-(pyrazolo[1,5-a]pyrimidin-3-yl)-1H-pyrazolo[4,3-c]pyridin-1-yl)phenyl)thio)-N-(2-hydroxyethyl)acetamide]
